Results on one molecule are retold here after paper PMC11320734 (ACS Pharmacology & Translational Science, 2024).

A short description of data set [1]: Hepatocyte clearance assay. Format: in vitro ADME. How it is done: The hepatocyte clearance assay was performed as previously described.[39] For mice hepatocytes, the suspension cultures were either freshly prepared by liver perfusion or prepared from cryopreserved hepatocyte batches (pooled C57BL6 mouse hepatocytes were purchased from BioreclamationIVT (NY, USA)). For human hepatocytes, commercially available, pooled (5–20 donors), cryopreserved samples from nontransplantable liver tissues were used. For the suspension cultures, Nunc U96 PP-0.5 mL (Nunc Natural, 267245) plates were used, which were incubated in a Thermo Forma incubator from Fischer Scientific (Wohlen, Switzerland) equipped with shakers from Variomag Teleshake (Sterico, Wangen, Switzerland) for maintaining cell dispersion. The cell culture medium was William’s media supplemented with glutamine, antibiotics (100 IU/mL Penicillin-Streptomycin, Gibco), insulin, dexamethasone, and 10% fetal calf serum (FCS). Incubations of a test compound at 1 μM test concentration in suspension cultures of 1 × 10^6 cells mL^–1 (∼1 μg μL^–1 protein concentration) were performed in 96-well plates and shaken at 900 rpm for up to 2 h in a 5% CO2 atmosphere at 37 °C. After 3, 6, 10, 20, 40, 60, and 120 min, a 100 μL cell suspension in each well was quenched with 200 μL methanol containing an internal standard. Samples were then cooled and centrifuged before analysis by LC-MS/MS. […]

Another data set deals with PPARg (Homo sapiens, UniProt P37231). The experiment in a line: Endocannabinoid target profiling: PPARg. To be noted: Table S1; read-out: PPARg (Ki, IC50).
The target in the next data set is GPR55 (Homo sapiens, UniProt Q9Y2T6). The experiment in a line: Endocannabinoid target profiling: GPR55. To be noted: Table S1; read-out: GPR55 (Ki, IC50).
Data set [2] can be described thus: Fraction unbound in plasma. Format: in vitro ADME. An excerpt:
Table 3 Physicochemical and ADMET Properties of RNB-61 | column: 481.556

In a further data set the target is hCB1R (Homo sapiens, UniProt P21554). The experiment in a line: cell-based. To be noted: Table 1; mean ± SD; read-out: EC50 hCB1R (cAMP assay). For orientation: Changes in cAMP serve as a functional read-out for many G protein-coupled receptors.
Data set [3] is described as follows: Thermodynamic solubility assay (THESA), also in FaSSIF and FeSSIF. It is filed as physicochemical. To be noted: thermodynamic from solid. The method, then: For the determination of the octanol/water distribution coefficient (logD), the carrier-mediated distribution system (CAMDIS)-assay was used as described elsewhere.[38] Kinetic and thermodynamic solubilities were assessed using the lyophilization solubility assay (LYSA) and thermodynamic solubility assay (THESA), respectively. For the LYSA, the solubility of RNB- 61 in phosphate buffer at pH 6.5 from an evaporated 10 mM DMSO compound stock solution was measured. Two aliquots of the test compounds were dried and dissolved in phosphate buffer at pH 6.5. The solutions were then filtered and diluted (3 different dilution levels for each compound) before high throughput mass spectrometry (MS) analysis was performed in an Agilent RapidFire system. Each test compound was quantified using a 6-point calibration curve prepared with the same DMSO starting solution. For THESA, RNB-61 (8.6 mg per mL solvent/vehicle) was stirred in HPLC vials (9 × 12 × 32 mm, Waters) at 350 rpm for 15 h. The presence of solid particles was determined by microscopic analysis of 10 μL samples. If the active pharmacological ingredient (API) was completely dissolved, more solid API was added before stirring for another 15 h. This step was repeated for up to 96 h or until residual solid particles could be detected. Samples (0.5 mL) were transferred to Eppendorf Ultrafree filter tubes (Filter: PVDF 0.22 μm) and centrifuged at 14,500 rpm for 10 min. The filtrates were diluted in ethanol and analyzed by ultra-performance liquid chromatography (UPLC). Measurements were repeated in 0.05 M aqueous phosphate buffer and in fasted (FaSSIF) and fed (FeSSIF) simulated gastrointestinal fluids.

The target of the next data set is canine CB2R (Canis lupus familiaris, UniProt E2RKA3). The experiment in a line: cAMP assay in CHO cells. Format: cell-based. To be noted: mean ± SD; read-out: EC50 cAMP assay, dog CB2R.

Converted amounts (≈) assume the structure as drawn. Where two headings read alike, the source gives them in different places.

PPARg, sequence (P37231 whole entry, species assumed): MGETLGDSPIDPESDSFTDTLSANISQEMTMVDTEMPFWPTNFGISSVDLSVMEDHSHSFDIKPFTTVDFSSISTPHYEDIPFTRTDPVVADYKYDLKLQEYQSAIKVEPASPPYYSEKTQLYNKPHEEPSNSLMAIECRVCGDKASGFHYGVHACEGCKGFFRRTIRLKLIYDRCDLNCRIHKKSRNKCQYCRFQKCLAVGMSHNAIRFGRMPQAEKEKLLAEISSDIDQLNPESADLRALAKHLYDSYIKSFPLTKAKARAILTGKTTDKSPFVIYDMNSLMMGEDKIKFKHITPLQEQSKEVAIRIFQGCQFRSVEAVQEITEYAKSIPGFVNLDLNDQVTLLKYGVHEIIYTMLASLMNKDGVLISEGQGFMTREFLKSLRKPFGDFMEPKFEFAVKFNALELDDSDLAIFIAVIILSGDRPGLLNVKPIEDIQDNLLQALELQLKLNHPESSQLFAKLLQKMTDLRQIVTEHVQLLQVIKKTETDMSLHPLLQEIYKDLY
canine CB2R, sequence (E2RKA3 1-360): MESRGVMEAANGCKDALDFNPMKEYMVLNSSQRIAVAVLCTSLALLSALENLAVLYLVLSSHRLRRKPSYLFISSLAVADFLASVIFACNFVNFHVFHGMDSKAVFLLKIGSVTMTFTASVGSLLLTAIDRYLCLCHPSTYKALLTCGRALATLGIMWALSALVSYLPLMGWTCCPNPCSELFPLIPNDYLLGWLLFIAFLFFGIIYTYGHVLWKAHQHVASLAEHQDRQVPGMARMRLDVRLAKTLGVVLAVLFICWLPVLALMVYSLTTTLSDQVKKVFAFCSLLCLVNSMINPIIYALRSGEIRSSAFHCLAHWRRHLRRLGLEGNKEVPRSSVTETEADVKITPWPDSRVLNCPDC
hCB1R, sequence (P21554 whole entry): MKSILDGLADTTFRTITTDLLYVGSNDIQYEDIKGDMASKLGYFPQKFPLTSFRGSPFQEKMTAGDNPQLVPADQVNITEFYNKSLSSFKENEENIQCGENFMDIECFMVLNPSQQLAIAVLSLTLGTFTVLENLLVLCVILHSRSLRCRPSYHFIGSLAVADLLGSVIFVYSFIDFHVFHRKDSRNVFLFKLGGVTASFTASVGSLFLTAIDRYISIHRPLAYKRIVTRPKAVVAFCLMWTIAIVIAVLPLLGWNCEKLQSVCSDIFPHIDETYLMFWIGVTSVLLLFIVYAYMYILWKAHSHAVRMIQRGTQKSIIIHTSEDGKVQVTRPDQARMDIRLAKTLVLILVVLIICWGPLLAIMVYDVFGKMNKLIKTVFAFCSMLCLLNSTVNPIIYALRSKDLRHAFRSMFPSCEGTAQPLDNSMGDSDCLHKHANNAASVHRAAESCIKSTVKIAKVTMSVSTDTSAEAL
GPR55, sequence (Q9Y2T6 whole entry, species assumed): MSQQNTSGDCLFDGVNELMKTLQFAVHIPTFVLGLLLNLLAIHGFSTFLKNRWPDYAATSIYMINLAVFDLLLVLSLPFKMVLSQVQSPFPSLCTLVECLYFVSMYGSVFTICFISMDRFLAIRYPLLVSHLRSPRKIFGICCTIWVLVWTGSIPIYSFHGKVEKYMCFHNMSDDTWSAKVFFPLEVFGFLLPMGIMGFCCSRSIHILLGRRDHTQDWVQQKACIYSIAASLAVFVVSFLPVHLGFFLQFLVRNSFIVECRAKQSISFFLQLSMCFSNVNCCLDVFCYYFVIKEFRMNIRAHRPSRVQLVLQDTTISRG

Regarding `Cn1c(C(C)(C)C)cc(=NC(=O)c2cc(C(F)(F)F)ccc2OCC(C)(C)O)n1CC1CCC1` [RNB-61], the hepatocyte CLint – broadly, the capacity of the preparation to metabolise the compound, expressed as a volume cleared per time – at 1 μM worked out at 48.5 µL/min/1e6 cells in data set [1] (C57BL6, mouse) and 85 µL/min/1e6 cells in data set [1] (human, pooled cryopreserved human hepatocytes in suspension culture). The IC50 (commonly the concentration at which inhibition is half-maximal) at PPARg was greater than 10 µM; on GPR55 it was greater than 50 µM. The results for the fraction unbound in data set [2] (human), in data set [2] (mouse) and in data set [2] (rat) were 0.019, 0.019 and 0.017, respectively. Besides, the EC50 (as a rule, the concentration that produces a half-maximal response) on hCB1R is greater than 10 µM; at canine CB2R it was 0.00186 ± 0.00158 µM. Besides, the solubility (in general, the concentration that dissolves in the medium under given conditions) at 15 h in data set [3] (aqueous buffer, read-out: aqueous solubility THESA) is 316 µg/mL (≈ 656 µM); in data set [3] (fassif, fasted simulated gastrointestinal fluid, read-out: solubility FaSSIF) it was 630 µg/mL (≈ 1310 µM); in data set [3] (fessif, fed simulated gastrointestinal fluid, read-out: solubility FeSSIF) it was 1370 µg/mL (≈ 2850 µM).
